In patent publication US20240228572A1 (i2o Therapeutics, Inc., priority 2020, published 2024):
*1 amine or outer side, *2 acyl side, *3 side chain or, on linkers, in order; H or OH if unused. Where a SMILES comes first, the peptide text is derived from it. Bridges are numbered along the chain shown (N, C = ends). Side-chain parts run from the residue outwards. [ ]: non-standard residue; d: D form. The star is where a group is joined. C20 diacid = O=C(O)CCCCCCCCCCCCCCCCCCC(=O)*; γGlu = O=C(O)[C@H](CCC(=O)[*:2])N[*:1]; AEEA = NCCOCCOCC(=O)O; Aib = CC(C)(N)C(=O)O

Molecular target: T1, human GLP-1 receptor (GLP-1R) (Homo sapiens, UniProt P43220)
T1 construct: expressed in transfected cells
T1 sequence (P43220 24-463): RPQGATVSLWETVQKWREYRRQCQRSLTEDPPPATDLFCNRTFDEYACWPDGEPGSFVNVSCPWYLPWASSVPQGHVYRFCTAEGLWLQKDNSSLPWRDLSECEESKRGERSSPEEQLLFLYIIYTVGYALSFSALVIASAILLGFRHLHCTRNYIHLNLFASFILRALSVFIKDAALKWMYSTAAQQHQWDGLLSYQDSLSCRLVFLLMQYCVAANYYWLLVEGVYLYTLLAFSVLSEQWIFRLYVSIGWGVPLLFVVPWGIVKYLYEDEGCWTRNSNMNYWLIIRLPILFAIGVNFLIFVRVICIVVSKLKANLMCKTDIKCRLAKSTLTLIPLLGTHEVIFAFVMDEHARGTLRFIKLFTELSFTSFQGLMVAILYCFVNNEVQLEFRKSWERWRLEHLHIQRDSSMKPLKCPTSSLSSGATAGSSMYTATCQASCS
Test: cAMP accumulation assay, CHO-K1 cells stably expressing human GLP-1R
Assay type: cell-based
Conditions: cAMP accumulation, mean pEC50, Table 10
Experimental: In the presence of the non-specific cAMP/cGMP phosphodiesterase inhibitor, 3-isobutyl-1-methylxanthine (IBMX), accumulating cAMP can be measured in vitro using common detection methods. Thus, it is possible to estimate an in vitro potency (pEC50) for peptides activating each of these receptors using fit dose-response curves for cAMP accumulation.
CHO-K1 cells stably expressing human GLP-1R (Genebank accession #NM_002062) were grown in 90% F12-K media supplemented with 10% FBS and 250 μg/ml G418.
On day 1, CHO-K1 cells were plated at 1.5 million cells per T75 flask in 90% F12-K media supplemented with 10% FBS. On day 3 cells were transfected with 40 mcg of each expression plasmid using Lipofectamine 2000 transfection reagent. On day 5, cells were dispensed at 1000 cells per well in white 384-well OptiPlates in 5 mcL of assay buffer consisting of 1×HBSS, 5 mM HEPES, 0.5 mM IBMX, and 0.1% casein.
Peptides were serially diluted 4-fold in assay buffer to final concentrations ranging from 1×10^−9 M to 9.5×10^−16 M. Two assay controls consisting of 50 mcM forskolin (cAMP system maximum) or assay buffer only (cAMP system minimum) were also prepared. Five microliters of each peptide-concentration, or assay control, was added to triplicate wells and incubated for thirty minutes at room temperature. During this incubation step a 4× europium labelled cAMP tracer solution and a 4× Ulight®-anti-cAMP solution (consisting of an anti-cAMP monoclonal antibody labelled with Ulight™ dye) was prepared according to the manufacturer's protocol (PerkinElmer LANCE Ultra cAMP kit). Following this incubation, 5 mcL europium labelled cAMP and 5 mcL Ulight anti-cAMP antibody was added to each well. The plate was covered to prevent evaporation and incubated for 60 minutes at room temperature in the dark. Plates were read on an Envision fluorescent plate reader (PerkinElmer).
Test values were first normalized to the system maximum and system minimum averaged values in Excel using the formula: (test value−system min average)/(system max average -system min average)*100. Normalized test values represent a baseline corrected percentage of the system maximum cAMP response induced by forskolin. Data from up to 3 replicate tests were analyzed for each peptide. Potency values were estimated using GraphPad Prism software (v7.04) by fitting data to a 4-parameter logistic curve model: Y=Bottom+(Top−Bottom)/(1+10^((LogEC50−X))). The Hill slope was constrained to 1.0. EC50 values were converted to pEC50 values using the formula: pEC50=−Log (EC50).

| Structure (SMILES) | EC50 [nM] |
| --- | --- |
| CC(C)C[C@H](NC(=O)[C@H](Cc1ccc(O)cc1)NC(=O)[C@H](CCCCN)NC(=O)[C@H](CO)NC(=O)[C@H](Cc1ccc(O)cc1)NC(=O)[C@H](CC(=O)O)NC(=O)[C@H](CO)NC(=O)[C@@H](NC(=O)[C@H](Cc1ccccc1)NC(=O)[C@@H](NC(=O)CNC(=O)[C@H](Cc1c[nH]cn1)NC(=O)[C@H](CO)NC(=O)[C@@H](N)Cc1ccc(O)cc1)[C@@H](C)O)[C@@H](C)O)C(=O)N[C@@H](CC(=O)O)C(=O)N[C@@H](CCCCNC(=O)CC[C@H](NC(=O)CC[C@H](NC(=O)COCCOCCNC(=O)CCCCCCCCCCCCCCCCCCC(=O)O)C(=O)O)C(=O)O)C(=O)N[C@@H](CCCCN)C(=O)N[C@@H](Cc1ccc(O)cc1)C(=O)N[C@@H](C)C(=O)N[C@@H](CCC(N)=O)C(=O)N[C@@H](CCC(=O)O)C(=O)N[C@@H](Cc1ccccc1)C(=O)N[C@H](C(=O)NC(C)(C)C(=O)N[C@@H](Cc1c[nH]c2ccccc12)C(=O)N[C@@H](CC(C)C)C(=O)N[C@@H](CCC(=O)O)C(=O)N[C@@H](CCC(=O)O)C(=O)N[C@@H](CCC(=O)O)C(=O)N1CCC[C@H]1C(=O)N[C@@H](CO)C(=O)N[C@@H](CO)C(=O)NCC(=O)N[C@@H](C)C(=O)N1CCC[C@H]1C(=O)N1CCC[C@H]1C(=O)N1CCC[C@H]1C(=O)N[C@@H](CO)C(=O)O)C(C)C [Compound A15] (H-YSHGTFTSDYSKYLDK([γGlu-γGlu-AEEA-C20 diacid])KYAQEFV[Aib]WLEEEPSSGAPPPS-OH) | > 1 |
| CC(C)C[C@H](NC(=O)[C@H](Cc1ccc(O)cc1)NC(=O)[C@H](CCCCN)NC(=O)[C@H](CO)NC(=O)[C@H](Cc1ccc(O)cc1)NC(=O)[C@H](CC(=O)O)NC(=O)[C@H](CO)NC(=O)[C@@H](NC(=O)[C@H](Cc1ccccc1)NC(=O)[C@@H](NC(=O)CNC(=O)[C@H](Cc1c[nH]cn1)NC(=O)[C@H](CO)NC(=O)[C@@H](N)Cc1ccc(O)cc1)[C@@H](C)O)[C@@H](C)O)C(=O)N[C@@H](CC(=O)O)C(=O)N[C@@H](CCCCNC(=O)CC[C@H](NC(=O)CC[C@H](NC(=O)COCCOCCNC(=O)CCCCCCCCCCCCCCCCCCC(=O)O)C(=O)O)C(=O)O)C(=O)N[C@@H](CCCCN)C(=O)N[C@@H](Cc1ccc(O)cc1)C(=O)N[C@@H](C)C(=O)N[C@@H](CCC(N)=O)C(=O)N[C@@H](CCC(=O)O)C(=O)N[C@@H](Cc1ccccc1)C(=O)N[C@H](C(=O)NC(C)(C)C(=O)N[C@@H](Cc1c[nH]c2ccccc12)C(=O)N[C@@H](CC(C)C)C(=O)N[C@@H](CCC(=O)O)C(=O)N[C@@H](CC(N)=O)C(=O)N[C@@H](CCC(=O)O)C(=O)N1CCC[C@H]1C(=O)N[C@@H](CO)C(=O)N[C@@H](CO)C(=O)NCC(=O)N[C@@H](C)C(=O)N1CCC[C@H]1C(=O)N1CCC[C@H]1C(=O)N1CCC[C@H]1C(=O)N[C@@H](CO)C(=O)O)C(C)C [Compound A16] (H-YSHGTFTSDYSKYLDK([γGlu-γGlu-AEEA-C20 diacid])KYAQEFV[Aib]WLENEPSSGAPPPS-OH) | > 1 |
| CC(C)C[C@H](NC(=O)[C@H](Cc1ccc(O)cc1)NC(=O)[C@H](CCCCN)NC(=O)[C@H](CO)NC(=O)[C@H](Cc1ccc(O)cc1)NC(=O)[C@H](CC(=O)O)NC(=O)[C@H](CO)NC(=O)[C@@H](NC(=O)[C@H](Cc1ccccc1)NC(=O)[C@@H](NC(=O)CNC(=O)[C@H](Cc1c[nH]cn1)NC(=O)[C@H](CO)NC(=O)[C@@H](N)Cc1ccc(O)cc1)[C@@H](C)O)[C@@H](C)O)C(=O)N[C@@H](CC(=O)O)C(=O)N[C@@H](CCCCNC(=O)CC[C@H](NC(=O)CC[C@H](NC(=O)COCCOCCNC(=O)CCCCCCCCCCCCCCCCCCC(=O)O)C(=O)O)C(=O)O)C(=O)N[C@@H](CCCCN)C(=O)N[C@@H](Cc1ccc(O)cc1)C(=O)N[C@@H](C)C(=O)N[C@@H](CCC(N)=O)C(=O)N[C@@H](CCC(=O)O)C(=O)N[C@@H](Cc1ccccc1)C(=O)N[C@H](C(=O)NC(C)(C)C(=O)N[C@@H](Cc1c[nH]c2ccccc12)C(=O)N[C@@H](CC(C)C)C(=O)N[C@@H](CCC(=O)O)C(=O)N[C@@H](CCC(N)=O)C(=O)N[C@@H](CCC(=O)O)C(=O)N1CCC[C@H]1C(=O)N[C@@H](CO)C(=O)N[C@@H](CO)C(=O)NCC(=O)N[C@@H](C)C(=O)N1CCC[C@H]1C(=O)N1CCC[C@H]1C(=O)N1CCC[C@H]1C(=O)N[C@@H](CO)C(=O)O)C(C)C [Compound A17] (H-YSHGTFTSDYSKYLDK([γGlu-γGlu-AEEA-C20 diacid])KYAQEFV[Aib]WLEQEPSSGAPPPS-OH; N-terminus assumed) | > 1 |
| CC(C)C[C@H](NC(=O)[C@H](Cc1ccc(O)cc1)NC(=O)[C@H](CCCCN)NC(=O)[C@H](CO)NC(=O)[C@H](Cc1ccc(O)cc1)NC(=O)[C@H](CC(=O)O)NC(=O)[C@H](CO)NC(=O)[C@@H](NC(=O)[C@H](Cc1ccccc1)NC(=O)[C@@H](NC(=O)CNC(=O)[C@H](Cc1c[nH]cn1)NC(=O)[C@H](CO)NC(=O)[C@@H](N)Cc1ccc(O)cc1)[C@@H](C)O)[C@@H](C)O)C(=O)N[C@@H](CC(=O)O)C(=O)N[C@@H](CCCCNC(=O)CC[C@H](NC(=O)CC[C@H](NC(=O)COCCOCCNC(=O)CCCCCCCCCCCCCCCCCCC(=O)O)C(=O)O)C(=O)O)C(=O)N[C@@H](CCCCN)C(=O)N[C@@H](Cc1ccc(O)cc1)C(=O)N[C@@H](C)C(=O)N[C@@H](CCC(N)=O)C(=O)N[C@@H](CCC(=O)O)C(=O)N[C@@H](Cc1ccccc1)C(=O)N[C@H](C(=O)NC(C)(C)C(=O)N[C@@H](Cc1c[nH]c2ccccc12)C(=O)N[C@@H](CC(C)C)C(=O)N[C@@H](CCC(=O)O)C(=O)N[C@@H](CO)C(=O)N[C@@H](CCC(=O)O)C(=O)N1CCC[C@H]1C(=O)N[C@@H](CO)C(=O)N[C@@H](CO)C(=O)NCC(=O)N[C@@H](C)C(=O)N1CCC[C@H]1C(=O)N1CCC[C@H]1C(=O)N1CCC[C@H]1C(=O)N[C@@H](CO)C(=O)O)C(C)C [Compound A19] (H-YSHGTFTSDYSKYLDK([γGlu-γGlu-AEEA-C20 diacid])KYAQEFV[Aib]WLESEPSSGAPPPS-OH) | > 1 |
| CC(C)C[C@H](NC(=O)[C@H](Cc1ccc(O)cc1)NC(=O)[C@H](CCCCN)NC(=O)[C@H](CO)NC(=O)[C@H](Cc1ccc(O)cc1)NC(=O)[C@H](CC(=O)O)NC(=O)[C@H](CO)NC(=O)[C@@H](NC(=O)[C@H](Cc1ccccc1)NC(=O)[C@@H](NC(=O)CNC(=O)[C@H](Cc1c[nH]cn1)NC(=O)[C@H](CO)NC(=O)[C@@H](N)Cc1ccc(O)cc1)[C@@H](C)O)[C@@H](C)O)C(=O)N[C@@H](CC(=O)O)C(=O)N[C@@H](CCCCNC(=O)CC[C@H](NC(=O)CC[C@H](NC(=O)COCCOCCNC(=O)CCCCCCCCCCCCCCCCCCC(=O)O)C(=O)O)C(=O)O)C(=O)N[C@@H](CCCCN)C(=O)N[C@@H](Cc1ccc(O)cc1)C(=O)N[C@@H](C)C(=O)N[C@@H](CCC(N)=O)C(=O)N[C@@H](CCC(=O)O)C(=O)N[C@@H](Cc1ccccc1)C(=O)N[C@H](C(=O)NC(C)(C)C(=O)N[C@@H](Cc1c[nH]c2ccccc12)C(=O)N[C@@H](CC(C)C)C(=O)N[C@@H](CCC(=O)O)C(=O)N[C@@H](CCCCN)C(=O)N[C@@H](CCC(=O)O)C(=O)N1CCC[C@H]1C(=O)N[C@@H](CO)C(=O)N[C@@H](CO)C(=O)NCC(=O)N[C@@H](C)C(=O)N1CCC[C@H]1C(=O)N1CCC[C@H]1C(=O)N1CCC[C@H]1C(=O)N[C@@H](CO)C(=O)O)C(C)C [Compound A20] (H-YSHGTFTSDYSKYLDK([γGlu-γGlu-AEEA-C20 diacid])KYAQEFV[Aib]WLEKEPSSGAPPPS-OH; N-terminus assumed) | > 1 |
| CC(C)C[C@H](NC(=O)[C@H](Cc1ccc(O)cc1)NC(=O)[C@H](CCCCN)NC(=O)[C@H](CO)NC(=O)[C@H](Cc1ccc(O)cc1)NC(=O)[C@H](CC(=O)O)NC(=O)[C@H](CO)NC(=O)[C@@H](NC(=O)[C@H](Cc1ccccc1)NC(=O)[C@@H](NC(=O)CNC(=O)[C@H](Cc1c[nH]cn1)NC(=O)[C@H](CO)NC(=O)[C@@H](N)Cc1ccc(O)cc1)[C@@H](C)O)[C@@H](C)O)C(=O)N[C@@H](CC(=O)O)C(=O)N[C@@H](CCCCNC(=O)CC[C@H](NC(=O)CC[C@H](NC(=O)COCCOCCNC(=O)CCCCCCCCCCCCCCCCCCC(=O)O)C(=O)O)C(=O)O)C(=O)N[C@@H](CCCCN)C(=O)N[C@@H](Cc1ccc(O)cc1)C(=O)N[C@@H](C)C(=O)N[C@H]1CCC(=O)NCCCC[C@@H](C(=O)N[C@@H](Cc2c[nH]c3ccccc23)C(=O)N[C@@H](CC(C)C)C(=O)N[C@@H](CCC(=O)O)C(=O)N[C@@H](CC(=O)O)C(=O)N[C@@H](CCC(=O)O)C(=O)N2CCC[C@H]2C(=O)N[C@@H](CO)C(=O)N[C@@H](CO)C(=O)NCC(=O)N[C@@H](C)C(=O)N2CCC[C@H]2C(=O)N2CCC[C@H]2C(=O)N2CCC[C@H]2C(=O)N[C@@H](CO)C(=O)O)NC(=O)[C@H](C(C)C)NC(=O)[C@H](Cc2ccccc2)NC(=O)[C@H](CCCCN)NC1=O [Compound A21] (H-YSHGTFTSDYSKYLDK([γGlu-γGlu-AEEA-C20 diacid])KYAEKFVKWLEDEPSSGAPPPS-OH; lactam 20-24; N-terminus assumed) | > 1 |
